Paper PMC9775090, “Identification of Bioactive Peptides from Nannochloropsis oculata Using a Combination of Enzymatic Treatment, in Silico Analysis and Chemical Synthesis” (Biomolecules, 2022)
pIC50: −log10 of the molar value. Entries after “also recorded” stand apart in the source; their conditions may differ. Where two headings read alike, the source gives them in different places. Where no end group is shown, it is not given here.

Legend:
[1] = target: T1, Angiotensin-1-converting enzyme (ACE-1) (Homo sapiens, UniProt P12821); experiment: ACE-1 inhibition, ACE kit-WST 96-well colorimetric assay; assay type: biochemical; conditions: for Observed Bioactivity In Vitro (ACE-1): result in words; for % ACE-1 inhibition / inhibition at 1000 µg/mL: synthesised peptides assayed at 1 mg/mL, n = 3; for inhibition at 1000 µg/mL: read-out: % ACE-1 inhibition
T1 construct: purchased Tebu Bio (TebuBio Ltd., Peterborough, UK)
Method: The ACE-I inhibitory activity was determined using a 96 well plate bioassay supplied by Tebu-Bio (TebuBio Ltd., Peterborough, UK) in accordance with the manufacturers’ instructions. Briefly, the enzyme working solution and indicator working solution were prepared according to the manufacturer’s instructions. […] Blanks were included. 20 µL of the substrate buffer was added to each well, followed by 20 µL of the enzyme working solution to experimental wells and blank one wells. The plate was incubated at 37 °C for 1 h. After incubation, 200 µL indicator working solution was added to each well, and the plate was incubated at room temperature for 10 min. […] Absorbance was measured using a plate reader at 450 nm. For IC50 determination, the ACE kit-WST was also used.

ovine recombinant COX-1 = experiment: Cyclooxygenase inhibition, cell free assay (COX-1); assay type: biochemical; conditions: for COX-1 inhibition: assayed at 1 mg/mL, ovine recombinant COX-1
Method: (§1) In vitro assays to determine COX inhibition were performed using cell free assays as described previously. The synthesised peptides were incubated independently with ovine recombinant COX-1 (Cayman Chemicals, Hamburg, Germany) or human recombinant COX-2 (Cayman Chemicals, Hamburg, Germany). The assay was carried out in accordance with the manufacturer’s instructions. Resveratrol (Merck, Dublin, Ireland) was used as a positive control.

human recombinant COX-2 = experiment: Cyclooxygenase inhibition, cell free assay (COX-2); assay type: biochemical; conditions: for COX-2 inhibition: assayed at 1 mg/mL, human recombinant COX-2
Method: as §1

ACE-1 = conditions: cited from earlier work
Method: Limited studies exist concerning the use of Nannochloropsis sp. as a source of protein, protein hydrolysates or bioactive peptides. Recently, […] et al. […] Enzymatic treatment of biomass is a useful strategy for generation of bioactive peptide containing concentrates. […] These peptides were selected based on their Peptide Ranker scores and amino acid sequences. The ACE-1 and COX-1/COX-2 assays were performed as described previously described using commercially available kits from Cambridge BioSciences (Cambridge BioSciences, Cambridge, UK).

Escherichia coli DSM 301 = experiment: Modified agar well diffusion assay, E. coli; assay type: cell-based; conditions: 1 mg/mL in 30 µL well, 24 h
Method: (§2) The antibacterial activity of synthesised peptides was determined using an overnight culture of the pathogenic bacteria in a modified agar well diffusion assay as described previously. A zone of inhibition around wells containing the peptides indicates antibacterial activity. Escherichia coli DSM 301 and Bacillus cereus DSM 31 were used as indicator pathogen strains. Ampicillin (Merck, Dublin, Ireland) and Cecropin P1 (Merck, Dublin Ireland) were used as positive control antibiotics and antimicrobial peptides. Positive controls or test peptides were incubated (concentration 1 mg/mL) in a well (30 µL capacity) on the agar plate which was seeded with the pathogenic strain at an overnight culture to media ratio of 100 µL: 500 mL (v:v). Plates were left at 4 °C for 4 h and subsequently incubated at the optimum culture temperature and conditions for the pathogen in question. After 24 h, zones of inhibition indicated the presence of antibacterial activity.

Bacillus cereus DSM 31 = experiment: Modified agar well diffusion assay, B. cereus; assay type: cell-based; conditions: 1 mg/mL in 30 µL well, 24 h
Method: as §2

[2] = peptides from pepsin treated Nannochloropsis oculata

T1 sequence (P12821 30-1306): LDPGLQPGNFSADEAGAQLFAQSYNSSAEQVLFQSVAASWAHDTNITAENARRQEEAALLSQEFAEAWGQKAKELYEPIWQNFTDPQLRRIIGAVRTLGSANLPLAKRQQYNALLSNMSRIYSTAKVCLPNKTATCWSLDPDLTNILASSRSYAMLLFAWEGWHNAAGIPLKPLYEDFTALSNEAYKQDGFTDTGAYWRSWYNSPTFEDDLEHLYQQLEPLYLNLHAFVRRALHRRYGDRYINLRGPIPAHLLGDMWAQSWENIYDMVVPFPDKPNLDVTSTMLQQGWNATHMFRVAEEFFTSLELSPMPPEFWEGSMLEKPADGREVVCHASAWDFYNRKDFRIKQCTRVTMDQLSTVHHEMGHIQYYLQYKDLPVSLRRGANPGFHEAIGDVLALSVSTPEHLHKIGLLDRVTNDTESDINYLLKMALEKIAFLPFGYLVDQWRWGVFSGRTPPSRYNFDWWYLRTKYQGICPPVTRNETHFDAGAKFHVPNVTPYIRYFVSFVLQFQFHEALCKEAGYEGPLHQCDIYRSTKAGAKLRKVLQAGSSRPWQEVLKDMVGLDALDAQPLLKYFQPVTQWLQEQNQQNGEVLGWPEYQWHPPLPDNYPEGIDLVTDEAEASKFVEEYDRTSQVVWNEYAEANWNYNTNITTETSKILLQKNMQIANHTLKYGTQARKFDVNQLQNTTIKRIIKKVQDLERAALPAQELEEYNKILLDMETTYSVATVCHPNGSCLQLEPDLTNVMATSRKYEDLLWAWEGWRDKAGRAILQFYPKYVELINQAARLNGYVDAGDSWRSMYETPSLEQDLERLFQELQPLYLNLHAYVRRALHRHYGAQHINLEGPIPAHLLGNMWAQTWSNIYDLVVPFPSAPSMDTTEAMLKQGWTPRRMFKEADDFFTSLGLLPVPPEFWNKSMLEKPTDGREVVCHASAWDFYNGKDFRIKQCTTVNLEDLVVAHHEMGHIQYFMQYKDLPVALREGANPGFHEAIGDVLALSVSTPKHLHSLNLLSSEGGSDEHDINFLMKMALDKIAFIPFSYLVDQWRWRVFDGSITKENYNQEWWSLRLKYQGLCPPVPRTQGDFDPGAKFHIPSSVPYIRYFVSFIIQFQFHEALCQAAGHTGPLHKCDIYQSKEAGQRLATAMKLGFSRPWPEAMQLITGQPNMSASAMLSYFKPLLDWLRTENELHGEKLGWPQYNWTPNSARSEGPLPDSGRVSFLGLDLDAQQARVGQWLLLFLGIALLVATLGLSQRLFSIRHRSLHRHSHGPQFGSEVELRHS

In the case of “VVGAVGAADLL [peptide corresponding to HEAT repeat-containing protein 1 of Ectocarpus siliculosus, chemically synthesised]”, the “Observed Bioactivity In Vitro (ACE-1)” value [1] was “ACE-1 inhibition” and the “% ACE-1 inhibition” value [1] was 25.73%.
For “YANDLLCMPI [peptide identified in Nannochloropsis sp. xylanase permeate, chemically synthesised]”, the COX-1 inhibition (ovine recombinant COX-1) was 34.5%, the “Observed Bioactivity In Vitro (COX-1)” value (ovine recombinant COX-1; result in words) was “COX-1 and COX-2 inhibition” and the COX-2 inhibition (human recombinant COX-2) was 47.65%. The “Observed Bioactivity In Vitro (COX-2)” value (human recombinant COX-2; result in words) was “COX-1 and COX-2 inhibition”.
In the case of “LVGADAHALGVICS [peptide corresponding to a transcriptor initiation protein from Porphyridium sp., chemically synthesised]”, the “Observed Bioactivity In Vitro (ACE-1)” value [1] was “ACE-1 inhibition”.
In the case of NKFPYTTQ [NKFPYTTQ], the inhibition at 1000 µg/mL [1] was 76.8%.
For Leu-Glu-Gln [LEQ], the pIC50 (ACE-1; [2]) is given as 3.76.
In the case of “KGGGSGANGGRL [peptide identified in Nannochloropsis sp. xylanase permeate, chemically synthesised; spelt three ways]”, the “% ACE-1 inhibition” value ([1]; listed as KGGGGGANGGRL) was 35.81%.
For Leu-Val-Thr-Val-Met, the pIC50 (ACE-1; purified peptide from Alcalase hydrolysate) is given as 4.74.
In the case of GMNNLTP [GMNNLTP], the pIC50 (ACE-1; [2]) is listed as 3.91.
VYNKFPYTTQ [VYNKFPYTTQ] gave an inhibition at 1000 µg/mL [1] of 81.7%.
For AGDVGFDPLGF, the “Antibacterial activity against E. coli (zone of inhibition)” value (Escherichia coli DSM 301) was “having antibacterial activity in vitro against E. coli; also recorded: produced a zone of inhibition; also recorded: Antibacterial activity against E. coli at a concentration of 1 mg/mL”, the “Antibacterial activity against B. cereus (zone of inhibition)” value (Bacillus cereus DSM 31) was “not B. cereus” and the “Observed Bioactivity In Vitro (ACE-1)” value [1] was “ACE-1 inhibitory”.
With `Oc1ccc(/C=C/c2cc(O)cc(O)c2)cc1` [Resveratrol, reference compound] the COX-1 inhibition (ovine recombinant COX-1) was 78.41 (±2.92) % and the COX-2 inhibition (human recombinant COX-2) was 70.41%.
